According to patent US12077483B2, “Modified amine lipids” (Intellia Therapeutics, Inc., priority 2018, dated 2024):

How the values were obtained:
[1] = pKa of amine lipid by TNS fluorescence; type: physicochemical; conditions: probe TNS (6-(p-toluidino)-2-naphthalenesulfonic acid sodium salt), unformulated amine lipid in ethanol, sodium phosphate buffers -9.0
Method: The pKa of each amine lipid was determined according to the method in Jayaraman, et al. (Angewandte Chemie, 2012) with the following adaptations. The pKa was determined for unformulated amine lipid in ethanol. Lipid stock solutions (2.94 mM) were diluted into Sodium Phosphate Buffers (0.1 M, Boston Bioproducts) of different pH (pH-range: 4.5-9.0) yielding a final lipid concentration of approx. 100 μM. The test samples were supplemented with TNS {6-(p-Toluidino)-2-naphthalenesulfonic acid sodium salt}, incubated and the fluorescence intensity was measured using excitation and emission wavelengths of 321 nm and 448 nm, respectively. The recorded data were normalized and the respective pKa values were derived from sigmoidal fitting.

[2] = LNP average particle size and polydispersity by dynamic light scattering; type: physicochemical; conditions: LNP with the compound as amine lipid
Excerpt: The LNPs have a size of about 1 to about 1,000 nm, about 10 to about 500 nm, about 20 to about 500 nm, in a sub-embodiment about 50 to about 400 nm, in a sub-embodiment about 50 to about 300 nm, in a sub-embodiment about 50 to about 200 nm, and in a sub-embodiment about 50 to about 150 nm, and in another sub-embodiment about 60 to about 120 nm. Preferably, the LNPs have a size from about 60 nm to about 100 nm. The average sizes (diameters) of the fully formed LNP, may be measured by dynamic light scattering on a Malvern Zetasizer. The LNP sample is diluted in phosphate buffered saline (PBS) so that the count rate is approximately 200-400 kcps. The data is presented as a weighted average of the intensity measure.
In some embodiments, the LNPs have a size of about 75 to about 120 nm. In some embodiments, the LNPs have a size of about 75 to about 100 nm. Unless indicated otherwise, all sizes referred to herein are the average sizes (diameters) of the fully formed nanoparticles, as measured by dynamic light scattering on a Malvern Zetasizer. The nanoparticle sample is diluted in phosphate buffered saline (PBS) so that the count rate is approximately 200-400 kcps. The data is presented as a weighted-average of the intensity measure (Z-average diameter).
Dynamic Light Scattering (“DLS”) is used to characterize the polydispersity index (“pdi”) and size of the LNPs of the present disclosure. DLS measures the scattering of light that results from subjecting a sample to a light source. PDI, as determined from DLS measurements, represents the distribution of particle size (around the mean particle size) in a population, with a perfectly uniform population having a PDI of zero. Electropheretic light scattering is used to characterize the surface charge of the LNP at a specified pH. The surface charge, or the zeta potential, is a measure of the magnitude of electrostatic repulsion/attraction between particles in the LNP suspension. Asymmetric-Flow Field Flow Fractionation—Multi-Angle Light Scattering (AF4-MALS) is used to separate particles in the composition by hydrodynamic radius and then measure the molecular weights, hydrodynamic radii and root mean square radii of the fractionated particles. […] Nanoparticle tracking analysis (NTA, Malvern Nanosight) can be used to determine particle size distribution as well as particle concentration. LNP samples are diluted appropriately and injected onto a microscope slide. A camera records the scattered light as the particles are slowly infused through field of view. After the movie is captured, the Nanoparticle Tracking Analysis processes the movie by tracking pixels and calculating a diffusion coefficient. This diffusion coefficient can be translated into the hydrodynamic radius of the particle. The instrument also counts the number of individual particles counted in the analysis to give particle concentration.
LNP compositions are analyzed for average particle size, polydispersity index (pdi), total RNA content, encapsulation efficiency of RNA, and zeta potential. LNP compositions may be further characterized by lipid analysis, AF4-MALS, NTA, and/or cryo-EM. Average particle size and polydispersity are measured by dynamic light scattering (DLS) using a Malvern Zetasizer DLS instrument. LNP samples were diluted with PBS buffer prior to being measured by DLS. Z-average diameter which is an intensity-based measurement of average particle size was reported along with number average diameter and pdi. A Malvern Zetasizer instrument is also used to measure the zeta potential of the LNP. Samples are diluted 1:17 (50 μL into 800 μL) in 0.1×PBS, pH 7.4 prior to measurement.

[3] = RNA encapsulation efficiency of LNP (Ribogreen fluorescence assay); type: physicochemical; conditions: LNP with the compound as amine lipid
Method: A fluorescence-based assay (Ribogreen®, ThermoFisher Scientific) is used to determine total RNA concentration and free RNA. Encapsulation efficiency is calculated as (Total RNA—Free RNA)/Total RNA. LNP samples are diluted appropriately with 1× TE buffer containing 0.2% Triton-X 100 to determine total RNA or 1× TE buffer to determine free RNA. Standard curves are prepared by utilizing the starting RNA solution used to make the compositions and diluted in 1× TE buffer+/−0.2% Triton-X 100. Diluted RiboGreen® dye (according to the manufacturer's instructions) is then added to each of the standards and samples and allowed to incubate for approximately 10 minutes at room temperature, in the absence of light. A SpectraMax M5 Microplate Reader (Molecular Devices) is used to read the samples with excitation, auto cutoff and emission wavelengths set to 488 nm, 515 nm, and 525 nm respectively. Total RNA and free RNA are determined from the appropriate standard curves.
Encapsulation efficiency is calculated as (Total RNA−Free RNA)/Total RNA. The same procedure may be used for determining the encapsulation efficiency of a DNA-based cargo component. For single-strand DNA, Oligreen Dye may be used and for double-strand DNA, Picogreen Dye.

[4] = system: mouse TTR; assay: Serum TTR ELISA in mice after LNP delivery; type: in vivo; conditions: mouse serum, relative to TSS control of same experiment
Method: For studies measuring in vivo editing in liver, CD-1 female mice were dosed at 0.1 mpk unless otherwise noted. Animals were euthanized at 6 or 7 days by exsanguinationvia cardiac puncture under isoflourane anesthesia. Liver tissue was collected from each animal for DNA extraction and analysis. Blood was collected into serum separator tubes or into tubes containing buffered sodium citrate for plasma as described herein. Cohorts of mice were measured for editing by Next-Generation Sequencing (NGS).
Blood was collected and the serum was isolated as indicated. The total mouse TTR serum levels were determined using a Mouse Prealbumin (Transthyretin) ELISA Kit (Aviva Systems Biology, Cat. OKIA00111). Briefly, sera were serial diluted with kit sample diluent, e.g. to a final dilution of 10,000-fold and/or 2,500-fold. The diluted sample was then added to the ELISA plates and the assay was then carried out according to directions. Serum TTR data from treatment groups are expressed as a percentage of vehicle control levels.

[5] = Expt. 1, composition ratio (mol %) 50/9/38/3 for Cmpnd 49, 50/10/38.5/1.5 for the others
[6] = Expt. 8, composition ratio (mol %) 50/9/38/3 for Cmpnd 49, 50/10/38.5/1.5 for the others
[7] = Expt. 7, composition ratio (mol %) 50/9/38/3 for Cmpnd 49, 50/10/38.5/1.5 for the others
[8] = Expt. 2, composition ratio (mol %) 50/9/39.5/3 for Cmpnd 49, 50/9/39.5/1.5 for the others

| pKa [1] | Num Ave Size (nm) [2, 5] [nm] | PDI [2, 5] | Z-Ave Size (nm) [2, 5] [nm] | Encapsulation (%) [3, 5] [%] | Structure (SMILES) | Serum TTR % TSS ([4]; dose 0.1 mpk) [% TSS] | Serum TTR % TSS ([4]; dose 0.03 mpk) [% TSS] | also measured |
| --- | --- | --- | --- | --- | --- | --- | --- | --- |
| 6.34 | 88.36 | 0.03 | 109.90 | 97 | CCCCCCCCCCCOC(=O)CCCCCCCC(=O)OCC(COC(=O)CCCCCCCC(=O)OCCCCCCCCCCC)OC(=O)CC(CCCCCCCC)OC(=O)NCCN(C)CC (centres unmarked) [Compound 59, O′1,O1-(2-((3-(((2-(ethyl(methyl)amino)ethyl)carbamoyl)oxy)undecanoyl)oxy)propane-1,3-diyl) 9,9′-diundecyl di(nonanedioate)] | 80.70 | – | – |
| 6.22 | 79.57 | 0.07 | 103.40 | 97 | CCCCCCCCCCCOC(=O)CCCCCCCC(=O)OCC(COC(=O)CCCCCCCC(=O)OCCCCCCCCCCC)OC(=O)CCC(CCCCCCCC)OC(=O)NCCN(C)CC (centres unmarked) [Compound 60, O′1,O1-(2-((4-(((2-(ethyl(methyl)amino)ethyl)carbamoyl)oxy)dodecanoyl)oxy)propane-1,3-diyl) 9,9′-diundecyl di(nonanedioate)] | 60.51 | – | – |
| 6.29 | 79.7 | 0.06 | 102.00 | 97 | CCCCCCCCCCCOC(=O)CCCCCCCC(=O)OCC(COC(=O)CCCCCCCC(=O)OCCCCCCCCCCC)OC(=O)CCCC(CCCCCCCC)OC(=O)NCCN(C)CC (centres unmarked) [Compound 61, O′1,O1-(2-((5-(((2-(ethyl(methyl)amino)ethyl)carbamoyl)oxy)tridecanoyl)oxy)propane-1,3-diyl) 9,9′-diundecyl di(nonanedioate)] | 81.48 | – | – |
| 6.32 | 87.26 | 0.04 | 106.40 | 97 | CCCCC/C=C\C/C=C\CCCCCCCC(=O)OCC(COC(=O)CCCCCCCC(=O)OCCCCCCCCCCC)OC(=O)CC(CCCCCCCC)OC(=O)NCCN(C)CC (centres unmarked) [Compound 62, 1-(3-methyl-13-((((9Z,12Z)-octadeca-9,12-dienoyl)oxy)methyl)-9-octyl-7,11-dioxo-8,12-dioxa-3,6-diazatetradecan-14-yl) 9-undecyl nonanedioate] | 57.89 | – | – |
| 6.32 | 82.18 | 0.04 | 106.00 | 98 | CCCCC/C=C\C/C=C\CCCCCCCC(=O)OCC(COC(=O)CCCCCCCC(=O)OCCCCCCCCCCC)OC(=O)CCC(CCCCCCCC)OC(=O)NCCN(C)CC (centres unmarked) [Compound 63, 1-(3-methyl-14-((((9Z,12Z)-octadeca-9,12-dienoyl)oxy)methyl)-9-octyl-7,12-dioxo-8,13-dioxa-3,6-diazapentadecan-15-yl) 9-undecyl nonanedioate] | 83.86 | – | – |
| 6.3 | 86.19 | 0.02 | 106.40 | 97 | CCCCC/C=C\C/C=C\CCCCCCCC(=O)OCC(COC(=O)CCCCCCCC(=O)OCCCCCCCCCCC)OC(=O)CCCC(CCCCCCCC)OC(=O)NCCN(C)CC (centres unmarked) [Compound 64, 1-(3-methyl-15-((((9Z,12Z)-octadeca-9,12-dienoyl)oxy)methyl)-9-octyl-7,13-dioxo-8,14-dioxa-3,6-diazahexadecan-16-yl) 9-undecyl nonanedioate] | 85.39 | – | – |
| 6.37 | – | – | – | – | CCCCC/C=C\C/C=C\CCCCCCCC(=O)OCC(COC(=O)CCCCCCC/C=C\C/C=C\CCCCC)OC(=O)CCC(CCCCCCCCCC)OC(=O)NCC1CCCN1C (centres unmarked) [Compound 65, 2-((4-((((1-methylpyrrolidin-2-yl)methyl)carbamoyl)oxy)tetradecanoyl)oxy)propane-1,3-diyl (9Z,9′Z,12Z,12′Z)-bis(octadeca-9,12-dienoate)] | 99.22 | 119.84 | Num Ave Size (nm) [2, 6]: 52.04 nm; PDI [2, 6]: 0.056; Z-Ave Size (nm) [2, 6]: 69.67 nm; Encapsulation (%) [3, 6]: 99% |
| 6.15 | – | – | – | – | CCCCC/C=C\C/C=C\CCCCCCCC(=O)OCC(COC(=O)CCCCCCC/C=C\C/C=C\CCCCC)OC(=O)CCC(CCCCCCCCCC)OC(=O)OCCCN1CCCC1 (centres unmarked) [Compound 66, 2-((4-(((3-(pyrrolidin-1-yl)propoxy)carbonyl)oxy)tetradecanoyl)oxy)propane-1,3-diyl (9Z,9′Z,12Z,12′Z)-bis(octadeca-9,12-dienoate)] | 19.674 | 54.682 | Num Ave Size (nm) [2, 7]: 65.07 nm; PDI [2, 7]: 0.035; Z-Ave Size (nm) [2, 7]: 79.79 nm; Encapsulation (%) [3, 7]: 98% |
| 6.43 | – | – | – | – | CCCCC/C=C\C/C=C\CCCCCCCC(=O)OCC(COC(=O)CCCCCCC/C=C\C/C=C\CCCCC)OC(=O)CCC(CCCC)OC(=O)NCC1CCCN1C (centres unmarked) [Compound 67, 2-((4-((((1-methylpyrrolidin-2-yl)methyl)carbamoyl)oxy)octanoyl)oxy)propane-1,3-diyl (9Z,9′Z,12Z,12′Z)-bis(octadeca-9,12-dienoate)] | – | 65.41 | Num Ave Size (nm) [2, 8]: 82.14 nm; PDI [2, 8]: 0.043; Z-Ave Size (nm) [2, 8]: 102.20 nm; Encapsulation (%) [3, 8]: 99% |
